Reference: patent US11504371B2, “Quinazolines compound, preparation method therefor and application thereof” (Beijing Normal University, priority 2017, dated 2022)

What was measured:
Format in all cases: cell-based
[1] = test system: human hepatoma cell line (HepG2); assay: MTT assay, tumor cell proliferation inhibition, HepG2; details: 72 h, read-out: Tumor inhibition rate (IC50)
Procedure: (§1) Cell lines to be tested: human hepatoma cell line (HepG2), human lung cancer cell line (A549), human prostate cancer cell line (DU145), human breast cancer cell line (MCF-7), human neuroblastoma cell line (SH-SY5Y), human gastric mucosal cell line (Ges-1) and human embryonic lung fibroblast cell line (CCC-HPF-1) (the cells to be tested were purchased from the Cancer Hospital of Chinese Academy of Medical Sciences).
(§2) The cells in logarithmic growth phase were treated to prepare a single cell suspension, with the cell density adjusted, which was seeded in a 96-well cell culture plate. About 2×10^3 cells were contained in 100 μL per well, and cultured in a cell incubator at 37° C., 5% CO2, and saturated humidity for 24 h. The used medium was aspirated and abandoned, and then 100 μL of the target compound in different concentrations (0.1 μM-100 μM) were added for drug treatment. Five duplicate wells were prepared for each concentration. The background blank well, negative control well and positive control well were also prepared. All the wells were placed in a cell culture incubator at 37° C., 5% CO2, saturated humidity for another 72 h. Then, each well was added with 10 μL of MTT solution (5 mg/mL) and incubated for another 4 h. After that, each well was added with 100 μL of 10% SDS-0.1% NH4Cl (10% SDS purchased from Beijing Mengyimei Biotechnology Co., Ltd.) solution, and incubated at 37° C. for 10 h in the dark. Then, the absorbance OD was measured at 570 nm using a microplate reader at a reference wavelength of 650 nm. Cell proliferation inhibition was calculated according to the following formula: % inhibition=(ODcontrol−ODtreat)(ODcontrol−ODblank)×100. […] Each group was performed at least three times in parallel.

[2] = test system: human lung cancer cell line (A549); assay: MTT assay, tumor cell proliferation inhibition, A549; details: for IC50: A549, MTT, 72 h, read-out: Tumor inhibition rate (IC50); for inhibitory activity on A549 (in words): MTT, summary of Table 1
Procedure: as §1, §2

[3] = test system: human neuroblastoma cell line (SH-SY5Y); assay: MTT assay, tumor cell proliferation inhibition, SH-SY5Y; details: for IC50: SH-SY5Y, 72 h, read-out: Tumor inhibition rate (IC50)
Procedure: as §1, §2

[4] = test system: human prostate cancer cell line (DU145); assay: MTT assay, tumor cell proliferation inhibition, DU145; details: DU145, MTT, 72 h; read-out: Tumor inhibition rate (IC50)
Procedure: as §1, §2

[5] = test system: human breast cancer cell line (MCF-7); assay: MTT assay, tumor cell proliferation inhibition, MCF-7; details: for IC50: MCF-7, MTT, 72 h, read-out: Tumor inhibition rate (IC50)
Procedure: as §1, §2

Compound	IC50 [1]	IC50 [2]	IC50 [3]	IC50 [4]	IC50 [5]	inhibitory activity on A549 (in words) [2]	inhibitory effect on SH-SY5Y (in words) ([3]; summary of Table 1)	inhibitory effect on MCF-7 (in words) ([5]; MTT, summary of Table 1)
O=[N+]([O-])c1ccc(COc2cccc(Nc3ncnc4cc5c(cc34)OCCOCCO5)c2)cc1 [Compound 2, N-(3-((4-nitrophenyl)methoxy)phenyl)-6,7-(benzo-9-crown-3)-4-quinazolinamine]	65.3 µM	15.5 µM	36.6 µM	> 100 µM	42.4 µM	–	–	–
Fc1ccc(COc2ccccc2Nc2ncnc3cc4c(cc23)OCCOCCO4)cc1 [Compound 4, N-(2-((p-fluorophenyl)methoxy)phenyl)-6,7-(benzo-9-crown-3)-4-quinazolinamine]	> 100 µM	14.4 µM	84.5 µM	> 100 µM	> 100 µM	–	–	–
Fc1ccc(COc2cccc(Nc3ncnc4cc5c(cc34)OCCOCCO5)c2)cc1 [Compound 5, N-(3-((p-fluorophenyl)methoxy)phenyl)-6,7-(benzo-9-crown-3)-4-quinazolinamine]	> 100 µM	7.84 µM	55.3 µM	> 100 µM	78.2 µM	strong specific inhibitory activity	–	–
Fc1ccc(COc2ccc(Nc3ncnc4cc5c(cc34)OCCOCCO5)cc2)cc1 [Compound 6, N-(4-((p-fluorophenyl)methoxy)phenyl)-6,7-(benzo-9-crown-3)-4-quinazolinamine]	> 100 µM	43.3 µM	82.7 µM	> 100 µM	65.2 µM	–	–	–
FC(F)(F)c1ccc(COc2ccccc2Nc2ncnc3cc4c(cc23)OCCOCCO4)cc1 [Compound 7, N-(2-((4-trifluoromethylphenyl)methoxy)phenyl)-6,7-(benzo-9-crown-3)-4-quinazolinamine]	87.4 µM	> 100 µM	> 100 µM	> 100 µM	> 100 µM	–	–	–
FC(F)(F)c1ccc(COc2cccc(Nc3ncnc4cc5c(cc34)OCCOCCO5)c2)cc1 [Compound 8, N-(3-((4-trifluoromethylphenyl)methoxy)phenyl)-6,7-(benzo-9-crown-3)-4-quinazolinamine]	> 100 µM	> 100 µM	19.3 µM	> 100 µM	> 100 µM	–	–	–
FC(F)(F)c1ccc(COc2ccc(Nc3ncnc4cc5c(cc34)OCCOCCO5)cc2)cc1 [Compound 9, N-(4-((4-trifluoromethylphenyl)methoxy)phenyl)-6,7-(benzo-9-crown-3)-4-quinazolinamine]	> 100 µM	> 100 µM	30.4 µM	> 100 µM	> 100 µM	–	–	–
N#Cc1ccc(COc2cccc(Nc3ncnc4cc5c(cc34)OCCOCCOCCO5)c2)cc1 [Compound 10, N-(3-((4-cyanophenyl)methoxy)phenyl)-6,7-(benzo-12-crown-4)-4-quinazolinamine]	> 100 µM	> 100 µM	> 100 µM	> 100 µM	> 100 µM	–	–	–
N#Cc1ccc(COc2ccc(Nc3ncnc4cc5c(cc34)OCCOCCOCCO5)cc2)cc1 [Compound 11, N-(4-((4-cyanophenyl)methoxy)phenyl)-6,7-(benzo-12-crown-4)-4-quinazolinamine]	67.4 µM	81.3 µM	9.89 µM	> 100 µM	> 100 µM	–	strong specific inhibitory effect	–
Fc1ccc(COc2ccccc2Nc2ncnc3cc4c(cc23)OCCOCCO4)cc1Cl [Compound 13, N-(2-((3-chloro,4-fluorophenyl)methoxy)phenyl)-6,7-(benzo-9-crown-3)-4-quinazolinamine]	> 100 µM	9.43 µM	> 100 µM	88.6 µM	> 100 µM	strong specific inhibitory activity	–	–
Fc1ccc(COc2ccc(Nc3ncnc4cc5c(cc34)OCCOCCO5)cc2)cc1Cl [Compound 15, N-(4-((3-chloro,4-fluorophenyl)methoxy)phenyl)-6,7-(benzo-9-crown-3)-4-quinazolinamine]	76.5 µM	> 100 µM	> 100 µM	> 100 µM	> 100 µM	–	–	–
Fc1ccc(COc2ccc(Nc3ncnc4cc5c(cc34)OCCOCCOCCO5)cc2)cc1 [Compound 17, N-(4-((p-fluorophenyl)methoxy)phenyl)-6,7-(benzo-12-crown-4)-4-quinazolinamine]	> 100 µM	> 100 µM	20.7 µM	> 100 µM	8.31 µM	–	–	strong specific inhibitory effect
O=[N+]([O-])c1ccc(COc2ccccc2Nc2ncnc3cc4c(cc23)OCCOCCOCCO4)cc1 [Compound 18, N-(2-((4-nitrophenyl)methoxy)phenyl)-6,7-(benzo-12-crown-4)-4-quinazolinamine]	60.8 µM	29.9 µM	75.5 µM	> 100 µM	> 100 µM	–	–	–
O=[N+]([O-])c1ccc(COc2cccc(Nc3ncnc4cc5c(cc34)OCCOCCOCCO5)c2)cc1 [Compound 19, N-(3-((4-nitrophenyl)methoxy)phenyl)-6,7-(benzo-12-crown-4)-4-quinazolinamine]	> 100 µM	> 100 µM	> 100 µM	> 100 µM	> 100 µM	–	–	–
c1ccc(COc2cccc(Nc3ncnc4cc5c(cc34)OCCOCCOCCO5)c2)cc1 [Compound 21, N-(3-((phenyl)methoxy)phenyl)-6,7-(benzo-12-crown-4)-4-quinazolinamine]	> 100 µM	> 100 µM	22.8 µM	> 100 µM	> 100 µM	–	–	–
FC(F)(F)c1ccc(COc2ccccc2Nc2ncnc3cc4c(cc23)OCCOCCOCCO4)cc1 [Compound 22, N-(2-((4-trifluoromethylphenyl)methoxy)phenyl)-6,7-(benzo-12-crown-4)-4-quinazolinamine]	> 100 µM	> 100 µM	> 100 µM	> 100 µM	> 100 µM	–	–	–
FC(F)(F)c1ccc(COc2ccc(Nc3ncnc4cc5c(cc34)OCCOCCOCCO5)cc2)cc1 [Compound 24, N-(4-((4-trifluoromethylphenyl)methoxy)phenyl)-6,7-(benzo-12-crown-4)-4-quinazolinamine]	> 100 µM	> 100 µM	> 100 µM	> 100 µM	> 100 µM	–	–	–

The next compounds have a lower IC50 [1] than those just listed; values first:

IC50 [1]	IC50 [2]	IC50 [3]	IC50 [4]	IC50 [5]	Compound	inhibitory activity on A549 (in words) [2]	inhibitory effect on SH-SY5Y (in words) ([3]; summary of Table 1)	inhibitory effect on MCF-7 (in words) ([5]; MTT, summary of Table 1)
55.5 µM	43.9 µM	39.3 µM	> 100 µM	> 100 µM	Fc1ccc(COc2ccc(Nc3ncnc4cc5c(cc34)OCCOCCOCCOCCO5)cc2)cc1 [Compound 26, N-(4-((p-fluorophenyl)methoxy)phenyl)-6,7-(benzo-15-crown-5)-4-quinazolinamine]	–	–	–
55.5 µM	43.9 µM	39.3 µM	> 100 µM	> 100 µM	c1ccc(COc2cccc(Nc3ncnc4cc5c(cc34)OCCOCCOCCOCCO5)c2)cc1 [Compound 28, N-(3-((phenyl)methoxy)phenyl)-6,7-(benzo-15-crown-5)-4-quinazolinamine]	–	–	–
43.6 µM	> 100 µM	22.7 µM	90.1 µM	> 100 µM	Fc1ccc(COc2cccc(Nc3ncnc4cc5c(cc34)OCCOCCO5)c2)cc1Cl [Compound 14, N-(3-((3-chloro,4-fluorophenyl)methoxy)phenyl)-6,7-(benzo-9-crown-3)-4-quinazolinamine]	–	–	–
31.3 µM	> 100 µM	> 100 µM	> 100 µM	> 100 µM	c1ccc(OCc2ccncc2)c(Nc2ncnc3cc4c(cc23)OCCOCCO4)c1 [Compound 12, N-(2-((4-pyridyl)methoxy)phenyl)-6,7-(benzo-9-crown-3)-4-quinazolinamine]	–	–	–
29.2 µM	48.5 µM	24 µM	> 100 µM	> 100 µM	c1ccc(COc2ccccc2Nc2ncnc3cc4c(cc23)OCCOCCOCCOCCO4)cc1 [Compound 27, N-(2-((phenyl)methoxy)phenyl)-6,7-(benzo-15-crown-5)-4-quinazolinamine]	–	–	–
19.4 µM	> 100 µM	58.6 µM	> 100 µM	66.5 µM	O=[N+]([O-])c1ccc(COc2ccc(Nc3ncnc4cc5c(cc34)OCCOCCOCCO5)cc2)cc1 [Compound 20, N-(4-((4-nitrophenyl)methoxy)phenyl)-6,7-(benzo-12-crown-4)-4-quinazolinamine]	–	–	–
19 µM	> 100 µM	20 µM	> 100 µM	> 100 µM	Fc1ccc(COc2cccc(Nc3ncnc4cc5c(cc34)OCCOCCOCCOCCO5)c2)cc1 [Compound 25, N-(3-((p-fluorophenyl)methoxy)phenyl)-6,7-(benzo-15-crown-5)-4-quinazolinamine]	–	–	–
